Data reported in patent US20230123334A1, “AMINO LIPID COMPOUND, PREPARATION METHOD THEREFOR, AND APPLICATION THEREOF” (SHENZHEN SHENXIN BIOTECHNOLOGY CO., LTD., priority 2020, published 2023).

The compounds below were run on HEK293 cells (assay: Preliminary screening as mRNA vectors, EGFP mRNA transfection of HEK293 cells). Settings: EGFP mRNA 50 ng per well, 96-well plates; percentage of GFP fluorescent cells relative to total number of cells (Hoechst).
Format: cell-based
Procedure, shortened: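 Screening format: EGFP mRNA transfection (50 ng/well) into HEK293 in 10% FBS-supplemented DMEM. Percent green fluorescent cells, normalised to Hoechst nuclear count, gave the value; Lipofectamine2000 was the reference transfectant.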
CCCCCCCCCCSc1nc(NCCCCCC)nc(NCCN2CCCC2)n1 [Compound D3S10N6] was tested, and the “Absolute mRNA transfection efficiency in HEK293 cells” value (from here on “Absolute mRNA transfection efficiency”) was 0.4%. For CCCCCCCCCCSc1nc(NCCCCCCC)nc(NCCN2CCCC2)n1 [Compound D3S10N7], the “Absolute mRNA transfection efficiency” value was 1.4%. In the case of CCCCCCCCCCSc1nc(NCCCCCCCC)nc(NCCN2CCCC2)n1 [Compound D3S10N8], the “Absolute mRNA transfection efficiency” value is reported as 0.4%. In the case of CCCCCCCCCCSc1nc(NCCCCCCCCC)nc(NCCN2CCCC2)n1 [Compound D3S10N9], the “Absolute mRNA transfection efficiency” value is reported as 2.7%. CCCCCCCCCCCNc1nc(NCCN2CCCC2)nc(SCCCCCCCCCC)n1 [Compound D3S10N11] was tested, and the “Absolute mRNA transfection efficiency” value was 17.1%. For CCCCCCCCCCCCNc1nc(NCCN2CCCC2)nc(SCCCCCCCCCC)n1 [Compound D3S10N12], the “Absolute mRNA transfection efficiency” value was 19.1%. For CCCCCCCCCCCCCNc1nc(NCCN2CCCC2)nc(SCCCCCCCCCC)n1 [Compound D3S10N13], the “Absolute mRNA transfection efficiency” value was 35.0%. With CCCCCCCCCCCCCCCNc1nc(NCCN2CCCC2)nc(SCCCCCCCCCC)n1 [Compound D3S10N15] the “Absolute mRNA transfection efficiency” value was 57.6%. In the case of CCCCCCCCCCCCCCCCNc1nc(NCCN2CCCC2)nc(SCCCCCCCCCC)n1 [Compound D3S10N16], the “Absolute mRNA transfection efficiency” value is reported as 56.7%. In the case of CCCCCCCCCCCCCCCCCCNc1nc(NCCN2CCCC2)nc(SCCCCCCCCCC)n1 [Compound D3S10N18], the “Absolute mRNA transfection efficiency” value is reported as 59.6%. With CCCCCCCCCCCSc1nc(NCCCCCC)nc(NCCN2CCCC2)n1 [Compound D3S11N6] the “Absolute mRNA transfection efficiency” value was 18.1%. With CCCCCCCCCCCSc1nc(NCCCCCCC)nc(NCCN2CCCC2)n1 [Compound D3S11N7] the “Absolute mRNA transfection efficiency” value was 8.0%. CCCCCCCCCCCSc1nc(NCCCCCCCC)nc(NCCN2CCCC2)n1 [Compound D3S11N8] was tested, and the “Absolute mRNA transfection efficiency” value was 31.8%. For CCCCCCCCCCCSc1nc(NCCCCCCCCC)nc(NCCN2CCCC2)n1 [Compound D3S11N9], the “Absolute mRNA transfection efficiency” value was 24.5%. In the case of CCCCCCCCCCCNc1nc(NCCN2CCCC2)nc(SCCCCCCCCCCC)n1 [Compound D3S11N11], the “Absolute mRNA transfection efficiency” value is reported as 33.5%. For CCCCCCCCCCCCNc1nc(NCCN2CCCC2)nc(SCCCCCCCCCCC)n1 [Compound D3S11N12], the “Absolute mRNA transfection efficiency” value was 40.5%. With CCCCCCCCCCCCCNc1nc(NCCN2CCCC2)nc(SCCCCCCCCCCC)n1 [Compound D3S11N13] the “Absolute mRNA transfection efficiency” value was 25.9%. For CCCCCCCCCCCCCCCNc1nc(NCCN2CCCC2)nc(SCCCCCCCCCCC)n1 [Compound D3S11N15], the “Absolute mRNA transfection efficiency” value was 31.3%. CCCCCCCCCCCCCCCCNc1nc(NCCN2CCCC2)nc(SCCCCCCCCCCC)n1 [Compound D3S11N16] was tested, and the “Absolute mRNA transfection efficiency” value was 15.7%. In the case of CCCCCCCCCCCCCCCCCCNc1nc(NCCN2CCCC2)nc(SCCCCCCCCCCC)n1 [Compound D3S11N18], the “Absolute mRNA transfection efficiency” value is reported as 40.6%. In the case of CCCCCCCCCCCCSc1nc(NCCCCCC)nc(NCCN2CCCC2)n1 [Compound D3S12N6], the “Absolute mRNA transfection efficiency” value is reported as 0.0%. In the case of CCCCCCCCCCCCSc1nc(NCCCCCCC)nc(NCCN2CCCC2)n1 [Compound D3S12N7], the “Absolute mRNA transfection efficiency” value is reported as 9.2%. With CCCCCCCCCCCCSc1nc(NCCCCCCCC)nc(NCCN2CCCC2)n1 [Compound D3S12N8] the “Absolute mRNA transfection efficiency” value was 12.3%. For CCCCCCCCCCCCSc1nc(NCCCCCCCCC)nc(NCCN2CCCC2)n1 [Compound D3S12N9], the “Absolute mRNA transfection efficiency” value was 39.9%. In the case of CCCCCCCCCCCCSc1nc(NCCCCCCCCCCC)nc(NCCN2CCCC2)n1 [Compound D3S12N11], the “Absolute mRNA transfection efficiency” value is reported as 21.2%. With CCCCCCCCCCCCNc1nc(NCCN2CCCC2)nc(SCCCCCCCCCCCC)n1 [Compound D3S12N12] the “Absolute mRNA transfection efficiency” value was 10.8%. With CCCCCCCCCCCCCNc1nc(NCCN2CCCC2)nc(SCCCCCCCCCCCC)n1 [Compound D3S12N13] the “Absolute mRNA transfection efficiency” value was 0.3%. For CCCCCCCCCCCCCCCNc1nc(NCCN2CCCC2)nc(SCCCCCCCCCCCC)n1 [Compound D3S12N15], the “Absolute mRNA transfection efficiency” value was 1.5%. With CCCCCCCCCCCCCCCCNc1nc(NCCN2CCCC2)nc(SCCCCCCCCCCCC)n1 [Compound D3S12N16] the “Absolute mRNA transfection efficiency” value was 1.9%. CCCCCCCCCCCCCCCCCCNc1nc(NCCN2CCCC2)nc(SCCCCCCCCCCCC)n1 [Compound D3S12N18] was tested, and the “Absolute mRNA transfection efficiency” value was 3.5%. CCCCCCCCCCCCCCSc1nc(NCCCCCC)nc(NCCN2CCCC2)n1 [Compound D3S14N6] was tested, and the “Absolute mRNA transfection efficiency” value was 66.7%. CCCCCCCCCCCCCCSc1nc(NCCCCCCC)nc(NCCN2CCCC2)n1 [Compound D3S14N7] was tested, and the “Absolute mRNA transfection efficiency” value was 64.2%. In the case of CCCCCCCCCCCCCCSc1nc(NCCCCCCCC)nc(NCCN2CCCC2)n1 [Compound D3S14N8], the “Absolute mRNA transfection efficiency” value is reported as 55.2%. In the case of CCCCCCCCCCCCCCSc1nc(NCCCCCCCCC)nc(NCCN2CCCC2)n1 [Compound D3S14N9], the “Absolute mRNA transfection efficiency” value is reported as 51.6%. For CCCCCCCCCCCCCCSc1nc(NCCCCCCCCCCC)nc(NCCN2CCCC2)n1 [Compound D3S14N11], the “Absolute mRNA transfection efficiency” value was 30.9%. For CCCCCCCCCCCCCCSc1nc(NCCCCCCCCCCCC)nc(NCCN2CCCC2)n1 [Compound D3S14N12], the “Absolute mRNA transfection efficiency” value was 13.5%. In the case of CCCCCCCCCCCCCCSc1nc(NCCCCCCCCCCCCC)nc(NCCN2CCCC2)n1 [Compound D3S14N13], the “Absolute mRNA transfection efficiency” value is reported as 25.9%. In the case of CCCCCCCCCCCCCCCNc1nc(NCCN2CCCC2)nc(SCCCCCCCCCCCCCC)n1 [Compound D3S14N15], the “Absolute mRNA transfection efficiency” value is reported as 3.6%. In the case of CCCCCCCCCCCCCCCCNc1nc(NCCN2CCCC2)nc(SCCCCCCCCCCCCCC)n1 [Compound D3S14N16], the “Absolute mRNA transfection efficiency” value is reported as 1.2%. With CCCCCCCCCCCCCCCCCCNc1nc(NCCN2CCCC2)nc(SCCCCCCCCCCCCCC)n1 [Compound D3S14N18] the “Absolute mRNA transfection efficiency” value was 1.5%. CCCCCCCCCCCCCCCSc1nc(NCCCCCC)nc(NCCN2CCCC2)n1 [Compound D3S15N6] was tested, and the “Absolute mRNA transfection efficiency” value was 33.2%. CCCCCCCCCCCCCCCSc1nc(NCCCCCCC)nc(NCCN2CCCC2)n1 [Compound D3S15N7] was tested, and the “Absolute mRNA transfection efficiency” value was 80.8%. For CCCCCCCCCCCCCCCSc1nc(NCCCCCCCC)nc(NCCN2CCCC2)n1 [Compound D3S15N8], the “Absolute mRNA transfection efficiency” value was 17.0%. CCCCCCCCCCCCCCCSc1nc(NCCCCCCCCC)nc(NCCN2CCCC2)n1 [Compound D3S15N9] was tested, and the “Absolute mRNA transfection efficiency” value was 15.4%. In the case of CCCCCCCCCCCCCCCSc1nc(NCCCCCCCCCCC)nc(NCCN2CCCC2)n1 [Compound D3S15N11], the “Absolute mRNA transfection efficiency” value is reported as 23.2%. For CCCCCCCCCCCCCCCSc1nc(NCCCCCCCCCCCC)nc(NCCN2CCCC2)n1 [Compound D3S15N12], the “Absolute mRNA transfection efficiency” value was 7.5%. For CCCCCCCCCCCCCCCSc1nc(NCCCCCCCCCCCCC)nc(NCCN2CCCC2)n1 [Compound D3S15N13], the “Absolute mRNA transfection efficiency” value was 3.0%. In the case of CCCCCCCCCCCCCCCNc1nc(NCCN2CCCC2)nc(SCCCCCCCCCCCCCCC)n1 [Compound D3S15N15], the “Absolute mRNA transfection efficiency” value is reported as 2.6%. In the case of CCCCCCCCCCCCCCCCNc1nc(NCCN2CCCC2)nc(SCCCCCCCCCCCCCCC)n1 [Compound D3S15N16], the “Absolute mRNA transfection efficiency” value is reported as 7.6%. For CCCCCCCCCCCCCCCCCCNc1nc(NCCN2CCCC2)nc(SCCCCCCCCCCCCCCC)n1 [Compound D3S15N18], the “Absolute mRNA transfection efficiency” value was 8.5%. For CCCCCCCCCCCCCCCCSc1nc(NCCCCCC)nc(NCCN2CCCC2)n1 [Compound D3S16N6], the “Absolute mRNA transfection efficiency” value was 96.0%. CCCCCCCCCCCCCCCCSc1nc(NCCCCCCC)nc(NCCN2CCCC2)n1 [Compound D3S16N7] was tested, and the “Absolute mRNA transfection efficiency” value was 85.0%. CCCCCCCCCCCCCCCCSc1nc(NCCCCCCCC)nc(NCCN2CCCC2)n1 [Compound D3S16N8] was tested, and the “Absolute mRNA transfection efficiency” value was 97.7%. CCCCCCCCCCCCCCCCSc1nc(NCCCCCCCCC)nc(NCCN2CCCC2)n1 [Compound D3S16N9] was tested, and the “Absolute mRNA transfection efficiency” value was 92.8%. For CCCCCCCCCCCCCCCCSc1nc(NCCCCCCCCCCC)nc(NCCN2CCCC2)n1 [Compound D3S16N11], the “Absolute mRNA transfection efficiency” value was 73.8%. For CCCCCCCCCCCCCCCCSc1nc(NCCCCCCCCCCCC)nc(NCCN2CCCC2)n1 [Compound D3S16N12], the “Absolute mRNA transfection efficiency” value was 1.7%. For CCCCCCCCCCCCCCCCSc1nc(NCCCCCCCCCCCCC)nc(NCCN2CCCC2)n1 [Compound D3S16N13], the “Absolute mRNA transfection efficiency” value was 0.4%. CCCCCCCCCCCCCCCCSc1nc(NCCCCCCCCCCCCCCC)nc(NCCN2CCCC2)n1 [Compound D3S16N15] was tested, and the “Absolute mRNA transfection efficiency” value was 0.0%. CCCCCCCCCCCCCCCCNc1nc(NCCN2CCCC2)nc(SCCCCCCCCCCCCCCCC)n1 [Compound D3S16N16] was tested, and the “Absolute mRNA transfection efficiency” value was 1.1%. For CCCCCCCCCCCCCCCCCCNc1nc(NCCN2CCCC2)nc(SCCCCCCCCCCCCCCCC)n1 [Compound D3S16N18], the “Absolute mRNA transfection efficiency” value was 14.1%. For CCCCCCCCCCCCCCCCCCSc1nc(NCCCCCC)nc(NCCN2CCCC2)n1 [Compound D3S18N6], the “Absolute mRNA transfection efficiency” value was 58.9%. For CCCCCCCCCCCCCCCCCCSc1nc(NCCCCCCC)nc(NCCN2CCCC2)n1 [Compound D3S18N7], the “Absolute mRNA transfection efficiency” value was 97.2%. CCCCCCCCCCCCCCCCCCSc1nc(NCCCCCCCC)nc(NCCN2CCCC2)n1 [Compound D3S18N8] was tested, and the “Absolute mRNA transfection efficiency” value was 93.3%. For CCCCCCCCCCCCCCCCCCSc1nc(NCCCCCCCCC)nc(NCCN2CCCC2)n1 [Compound D3S18N9], the “Absolute mRNA transfection efficiency” value was 72.3%. In the case of CCCCCCCCCCCCCCCCCCSc1nc(NCCCCCCCCCCC)nc(NCCN2CCCC2)n1 [Compound D3S18N11], the “Absolute mRNA transfection efficiency” value is reported as 30.9%. CCCCCCCCCCCCCCCCCCSc1nc(NCCCCCCCCCCCC)nc(NCCN2CCCC2)n1 [Compound D3S18N12] was tested, and the “Absolute mRNA transfection efficiency” value was 5.2%.
